Laboratory results: patent US20260240792A1, “COMPOSITIONS FOR TREATING 5-HT2 CONDITIONS AND METHODS OF USING THE SAME” (Board of Supervisors of Louisiana State University and …, priority 2022, published 2026)
“Also recorded” adds a separate entry of the source.

What was measured:
[1] = test system: TGF-Induced SMAD-mediated signaling; test: TGF-β induced SMAD-mediated signaling, dual luciferase reporters; format: cell-based
Normal Human Fibroblasts = test: TGF-β transformation of normal human fibroblasts to myofibroblasts; format: cell-based; conditions: TGF-β treated human fibroblasts
C6 glioma cells = conditions: cocktail of TNF-α and INF-γ, read-out: IC50 for block of LPS and cytokine stimulated nitrite accumulation; cited from earlier work
5-HT2A receptors = 5-HT2A receptors (Homo sapiens, UniProt P28223); conditions: cited from earlier work
Sequence of 5-HT2A receptors (P28223 whole entry): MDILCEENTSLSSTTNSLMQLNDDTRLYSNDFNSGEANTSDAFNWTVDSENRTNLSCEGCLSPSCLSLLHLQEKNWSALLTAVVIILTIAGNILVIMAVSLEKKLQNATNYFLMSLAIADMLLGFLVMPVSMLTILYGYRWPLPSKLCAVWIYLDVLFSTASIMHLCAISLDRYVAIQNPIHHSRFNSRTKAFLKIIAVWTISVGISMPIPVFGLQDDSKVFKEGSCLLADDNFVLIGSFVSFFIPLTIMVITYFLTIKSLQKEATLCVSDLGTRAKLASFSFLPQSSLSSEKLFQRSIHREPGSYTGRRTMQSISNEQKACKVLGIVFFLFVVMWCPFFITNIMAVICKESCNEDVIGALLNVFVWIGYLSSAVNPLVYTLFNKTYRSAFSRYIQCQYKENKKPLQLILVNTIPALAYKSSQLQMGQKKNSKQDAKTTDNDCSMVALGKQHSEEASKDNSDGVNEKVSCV

rabbits [2] = test: Topical ocular dosing in rabbits: observation of CNS, systemic, ocular and behavioral effects, ocular tolerability; format: in vivo, rabbit; conditions: 0.01%
Experimental: Apparent Ocular Irritability • b. Induction of Inflammation • c. Reduction of Corneal Barrier Integrity • d. Dry Eye or Excessive Tearing • e. Induction of Neovascularization • f. Induction of Scleral Reddening
Parameters Assessed during 2 hour Observation Window (see, for example, FIG. 1):
Two studies were performed to determine at what dose between 0.01% and 0.1% were behavioral and/or systemic effects observed. 50 μL doses at 0.01%, 0.05%, and 0.075% per eye applied and assessments were made as indicated herein.
The application of most topical eye drops requires repeatedly dosing up to 9 times per day in order to maintain efficacy across the course of waking hours and have efficacious levels available during sleeping hours. The effects of repeated ocular dosing of R-DOI were assessed in a similar manner as described herein, with the exception that doses of 0.01% or 0.05% were applied repeatedly as outlined herein:
Animals from the acute dosing were continued through the repeated dosing study. Animals were dosed at the indicated concentration 2 times on day 1 and then dosed 4 times per day for 3 subsequent days. Doses were administered at 50 μl per eye into both eyes of the animal.
Rabbits were assessed for clinically clear eyes by slit lamp ophthalmic scoring. All eyes of all rabbits were normal.
Following balancing animals were treated with 50 μL of Control ophthalmic BSS/0.5% CMC or 0.01% Compound 1 in ophthalmic BSS/0.5% CMC.
Any behavioral changes were continuously monitored over the next 2.5 hours (FIG. 3).
We can determine if a single dose of the ocular composition of 0.01% R-DOI with 0.5% carboxymethylcellulose in ophthalmic BSS: • 1. Reproduced previous findings that R-DOI had IOP depressing effects. • 2. Produced any readily observable behavioral effects. • 3. Was tolerated by the eye without adverse ocular effects, including absence of: • a. Apparent Ocular Irritability • b. Induction of Inflammation • c. Dry Eye or Excessive Tearing • d. Induction of Scleral Reddening • 4. Reduced IOP • 5. Maintained Reduction in IOP • 6. Increased Tear Film Production
(§1) • Rabbits were assessed for clinically clear eyes by slit lamp ophthalmic scoring. All eyes of all rabbits were normal. • Each eye of each rabbit was then assessed for initial IOP by tonometer. • Each eye of each rabbit was assessed for tear film production by Schirmer's Tear Flo Strips at a 30 second interval of analysis. Tear measures were evaluated by a digital caliper to determine mm of tears collected. • Rabbits were sorted into two groups attempting to balance IOP numbers (one higher, one lower animal per group). • Following animals were treated with 50 μL of Control ophthalmic BSS/0.5% CMC or 0.01% R-DOI HCl in ophthalmic BSS/0.5% CMC. • Any apparent behavioral changes were continuously monitored over the next 2.5 hours. • IOP determinations were made at 30 minutes, 1 hour, 2 hours and 3 hours, 5 hours, 7 hours and 24 hours-eyes were examined closely for any adverse effects during these IOP measures. • 7 hours post treatment when IOP returned to control levels tear film production was assessed (see, for example, FIG. 9).

rabbits [3] = test: Intraocular pressure (IOP) after topical ocular dosing in rabbits; format: in vivo, rabbit
Experimental: The IOP was assessed as a component of clinical outcomes for the animals in the studies described herein. The table below represents the effect of R-DOI on IOP 2 hours after dosing with the indicated concentration of R-DOI. Eyes were individually assessed and are indicated as IOP for the right (OD) or left (OS) eye.
Each eye of each rabbit was then assessed for initial IOP by tonometer.
IOP determinations were made at 30 minutes, 1 hour, 1.5 hours and 2.5 hours-eyes were examined closely for any adverse effects during these IOP measures.
(§2) 3 days post treatment at the same time initial measures were made, IOP and tear film production were re-assessed to examine if effects were sustained post 1 treatment.
The IOP was assessed via a TonoVet rebound Tonometer. The tables herein (see, for example, FIG. 4) represent the effect of Compound 1 on IOP at time intervals within the first 2.5 hours after dosing with 0.01% Compound 1 in BSS with 0.5% CMC. Eyes were individually assessed and are indicated as IOP for the right (OD) or left (OS) eye. 3 days post treatment eyes were reassessed for IOP changes to see if the effects of treatment lasted over a prolonged period.
as §1
The IOP was assessed via a TonoVet rebound Tonometer. The tables herein (see, for example, FIGS. 10-11) represents the effect of R-DOI on IOP at the defined time intervals Eyes were individually assessed and are indicated as IOP for the right (OD) or left (OS) eye.

rabbits [4] = test: Tear film production by Schirmer's Tear Flo Strips in rabbits; format: in vivo, rabbit
Experimental: Each eye of each rabbit was assessed for tear film production by Schirmer's Tear Flo Strips at a 30 second interval of analysis. Tear measures were evaluated by a digital caliper to determine mm of tears collected.
as §2
(§3) Effects of Compound 1 on Tear Production: Current IOP lowering glaucoma drugs eventually have effects on tear production resulting in dry eye conditions. Further, there are additional associations between dry eye and glaucoma, with co-incidence of the two conditions quite common. […] Selective 5-HT agonists/antagonists can reverse symptoms of dry eye-a very large ophthalmic market. The effects of Compound 1 on tear film production (see, for example, FIG. 6 panels A-D) were therefore assessed by a Schirmer's Tear Flo strip and measured using a digital micrometer caliper.
as §1
as §3, with “R-DOI” for “Compound 1”, “conditions” for “conditions quite”, “production” for “production (see, for example, FIG. 6 panels A-D)”

[5] = Solubility in ophthalmic eye drop (BSS, 0.5% CMC); format: physicochemical; conditions: 0.1% (5 mg/5 mL) in BSS with 0.5% CMC, pH 7.0
Experimental: Non-Limiting, Exemplary Findings Discussed within: • The NCE Compound 1 was formulated within an ophthalmic eye drop with BSS and 0.5% carboxymethylcellulose (CMC) at percentages of 0.1% (5 mg/5 ml) and lower with a pH of 7.0.
• The R-DOI HCl was formulated within an ophthalmic eye drop with BSS and 0.5% carboxymethylcellulose (CMC) at percentages of 0.1% (5 mg/5 mL) and lower with a pH of 7.0.

Compound: COc1cc(CC(C)N)c(OC)cc1I (centres unmarked) [DOI, 2,5-Dimethoxy-4-iodoamphetamine]
- TGF-Induced SMAD-mediated signaling [1]: Reduces TGF-Induced SMAD-mediated signaling
- Transformation into Myofibroblasts (Normal Human Fibroblasts): Prevents Transformation into Myofibroblasts
- IC50 (C6 glioma cells): 8 ± 3 nM

Compound: O=C(c1ccc(F)cc1)C1CCN(CCn2c(=O)[nH]c3ccccc3c2=O)CC1 [ketanserin]
- selectivity for 5-HT2A receptors over 5-HT2C receptors (5-HT2A receptors): ~ 20 fold

Compound: COc1cc(CC(C)C)c(OC)cc1CCN [Compound 1]
- adverse events (ocular, systemic, behavioral or otherwise) (rabbits [2]; 50 μL per eye, both eyes, single dose): No readily apparent adverse events; also recorded: No observable changes; also recorded: no adverse or abnormal events observed
- acute ocular toxicity, irritability or adverse ocular reactions (rabbits [2]; acute single dosing): did not exhibit any acute ocular toxicity, irritability or adverse ocular reactions; also recorded: did not display any signs of ocular irritability
- period for which decreased intraocular pressure was sustained post administration (rabbits [3]; 0.01% single dose, non-diseased eye model): at least 3 days
- IOP across the 2.5 hour observation window (rabbits [3]; 0.01% single dose, 30 minutes, 1 hour, 1.5 hours, 2.5 hours): decreased IOP at all points across the 2.5 hour observation window
- Return to Baseline IOP (rabbits [3]; post single dose administration of 0.01%): approximately 12 days
- effect on intraocular pressure (rabbits [3]; single topical ocular dose): decreased intraocular pressure with a single dose
- average increase in tear film production (rabbits [4]; 0.01% single dose, 2.5 h post treatment): 3.4 mm
- average increase of tear film (rabbits [4]; 0.01% single dose, 3 days post treatment): approximately 1.9 mm
- tear production as measured by Schirmer's test (rabbits [4]; topical ocular dose): increased tear production; also recorded: significant increase in tear production
- Solubility of the compound [5]: good with no remaining precipitates
